“Also recorded” adds a separate entry of the source.
Tests used:
[1] = system: induced RASA1-deficient mice (Rasa1 fl/fl Ub ert2cre embryos); test: Developmental angiogenesis in embryos with TM-induced disruption of Rasa1, drug co-administered; details: for EC apoptosis (activated caspase 3) / EC export of collagen IV / deposition of collagen IV in vascular BM / blood vascular hemorrhage (and edema): Rasa1 fl/fl Ub ert2cre embryos, TM at E13.5 with drug i.p. to pregnant mice, assessed at E18.5; for Embryonic vascular phenotypes / Percentage embryos with phenotype (affected/total): TM day E13.5 plus drug; for Embryonic vascular phenotypes / Percentage embryos with phenotype (affected/total) / vascular development / vascular phenotypes, drug administered alone: harvest E18.5; for vascular development / vascular phenotypes, drug administered alone: Rasa1 fl/fl and Rasa1 fl/fl Ub ert2cre embryos, drug from E13.5 in the absence of TM
Experimental: Pregnant mice were given 3 i.p. injections of TM (Sigma; 0.05 mg/g body weight per injection, dissolved in corn oil) on consecutive days. The MEK inhibitor, AZD6244 (Selleckchem; 0.05 mg/g body weight per injection), the PI3K inhibitor, PX-866 (Cayman chemical; 0.015 mg/g body weight per injection), the chemical chaperone, 4PBA (Sigma; 0.25 mg/g body weight per injection), and the 2OG dependent oxygenase inhibitors, EDHB and 2,4PDCA (Sigma; 0.1 mg/g body weight per injection) were injected i.p. into mice at the same time as TM and the day following the last TM injection for AZD6244 and PX-866 or for all subsequent days of gestation until harvest for 4PBA, EDHB and 2,4PDCA. […] Embryos were fixed in 3.75% formaldehyde overnight and embedded in paraffin. Five micrometer sections were dehydrated and antigen retrieval was performed with a Diva de-cloaking kit (Biocare Medical). […] Secondary antibodies used were species-specific anti-immunoglobulin donkey F(ab)2 fragments coupled to Alexa Fluor 488, 594 or 647 (Jackson Immunoresearch) and were incubated with tissues in PBS for 2 hours. Sections were stained with Hoechst (Invitrogen) to identify nuclei before mounting and viewing on a BX60 upright fluorescence microscope (Nikon) or a Leica SP5 X confocal microscope (Leica Microsystems).

[2] = system: mouse models that express these mutants; details: mouse models expressing point mutant collagen IV variants; cited from earlier work
human and mouse EC = human and mouse EC in vitro; cited from earlier work
HUVEC = test: RASA1 siRNA knockdown in HUVEC, intracellular collagen IV accumulation (immunofluorescence); assay type: cell-based, human; details: RASA1 siRNA-treated HUVEC, 2 mM 4PBA, 24 hours
Experimental: HUVEC from pooled donors (Lonza, CC-2519) were cultured in EBM™-2 Basal Medium (Lonza, CC-3156) supplemented with EGMm-2 SingleQuots™ Supplement Pack (Lonza, CC-4176). Cells were transfected with 50 nM RASA1 siRNA (5′-[…]-3′ (SEQ ID NO: 1), Invitrogen) using Lipofectamine RNAi MAX (Invitrogen) reagent according to the manufacturer's protocol. Stealth RNAi™ siRNA Negative Control Hi GC (Invitrogen) was used as control. Following transfection, HUVEC were recultured in the presence or absence of 2 mM 4PBA for 24 hours.
HUVECs were fixed with 4% paraformaldehyde in PBS for 30 minutes at room temperature washed in PBS, permeabilized with 0.2% Triton X-100, and blocked with 10% donkey serum for 1 hour. Cells were incubated with antibodies against collagen IV (1340-01, SouthemBiotech) and calnexin (PA5-34754, Thermo Fisher) overnight, followed by Alexa Fluor®488 or 594 conjugated secondary antibodies (Jackson ImmunoResearch) for 4 hours. Cells were stained with Hoechst to identify nuclei before mounting and viewing on a Leica SP5 X confocal microscope.

B16 melanoma = test: Tumor angiogenesis, B16 melanoma model in adult induced RASA1-deficient mice; assay type: in vivo, mouse; details: 13 days
Experimental: TM was administered to mice at 2 months of age (female mice for ID8 experiments and mice of either sex for B16 experiments). After 1 week, mice were injected s.c. in the flank with 1×10^6 ID8 cells or 0.75×10^6 B16F10 cells (provided by Weiping Zou, Michigan Medicine, Ann Arbor Michigan) suspended in 100 μl matrigel (Corning). In B16 experiments, 4PBA was administered to some mice at the same time as tumor and for each day thereafter (0.4 mg/g body weight per injection). ID8 and B16 tumors were harvested 6 weeks or 13 days later respectively and tumor weight and volume was determined as described (Kozak et al. Proc Natl Acad Sci USA. 2010; 107(46):19997-20002; incorporated by reference in its entirety). Tumors were fixed in 4% paraformaldehyde overnight and 5 μm sections were stained with Hoechst and antibodies against CD31, activated caspase 3 and collagen IV as above. Sections were viewed on a BX60 upright fluorescence microscope or a Leica SP5 X confocal microscope. BV density was assessed within a random 800 μm×800 μm region.

[3] = Rasa1 fl/fl littermates, Ert2Cre driver None
[4] = TM-treated Rasa1 fl/fl Ub ert2cre recipients, 4PBA daily from tumor injection

Structure (SMILES) | EC apoptosis (activated caspase 3) [1] | EC export of collagen IV / deposition of collagen IV in vascular BM [1] | blood vascular hemorrhage (and edema) [1] | Embryonic vascular phenotypes ([1]; Rasa1 fl/fl, Ert2Cre driver Ub) | Percentage embryos with phenotype (affected/total) ([1]; Rasa1 fl/fl, Ert2Cre driver Ub) | vascular development / vascular phenotypes, drug administered alone [1] | Embryonic vascular phenotypes [1, 3] | Percentage embryos with phenotype (affected/total) [1, 3] | intracerebral hemorrhage [2] | EC apoptosis (activated caspase 3) ([1]; listed as 4-phenylbutyric acid) | EC export of collagen IV / deposition of collagen IV in vascular BM ([1]; listed as 4-phenylbutyric acid) | blocked export of misfolded point mutant collagen IV variants (human and mouse EC) | intracellular accumulation of collagen IV after RASA1 knockdown (HUVEC) | B16 growth, 4PBA administered alone (B16 melanoma; Rasa1 fl/fl and Rasa1 fl/fl Ub ert2cre mice not previously injected with TM, 4PBA daily) | export of collagen IV from BEC and BV angiogenesis in B16 tumors (B16 melanoma; [4]) | growth of B16 cells (tumor weight and volume) (B16 melanoma; [4]) | B16 growth (B16 melanoma; TM-treated Rasa1 fl/fl control mice, 4PBA daily)
CCOC(=O)c1ccc(O)c(O)c1 [EDHB] | completely rescued; also recorded: absence of BEC apoptosis | completely rescued; also recorded: normal deposition of collagen IV in vascular BM | completely rescued; also recorded: absence of hemorrhage and edema | None | 0 (0/5) Percentage |  |  |  |  |  |  |  |  |  |  |  | 
C=CCN(/C=C1/C(=O)O[C@H](COC)[C@@]2(C)C1=C(O)C(=O)C1=C2[C@H](OC(C)=O)C[C@]2(C)C(=O)CC[C@@H]12)CC=C [PX-866] | unable to rescue | unable to rescue | extensive cutaneous hemorrhage was evident |  |  |  |  |  |  |  |  |  |  |  |  |  | 
Cn1cnc2c(F)c(Nc3ccc(Br)cc3Cl)c(C(=O)NOCCO)cc21 [AZD6244] |  | rescued; also recorded: normal deposition of collagen IV in vascular BM | prevented; also recorded: absence of hemorrhage and edema | None | 0 (0/7) Percentage | did not induce any vascular abnormalities; also recorded: absence of vascular phenotypes | None | 0 (0/8) Percentage |  |  |  |  |  |  |  |  | 
O=C(O)CCCc1ccccc1 [4PBA, 4-phenylbutyric acid] | completely rescued; also recorded: absence of BEC apoptosis | completely rescued; also recorded: normal deposition of collagen IV in vascular BM | completely rescued; also recorded: absence of hemorrhage and edema | None | 0 (0/7) Percentage | no influence; also recorded: absence of vascular phenotypes | None | 0 (0/5) Percentage | reversed | rescued | rescued | rescued | rescue | no influence | normal | restored | no influence
O=C(O)c1ccnc(C(=O)O)c1 [2,4PDCA, 2,4 pyridinedicarboxylic acid] | absence of BEC apoptosis | normal deposition of collagen IV in vascular BM | absence of hemorrhage and edema | None | 0 (0/3) Percentage |  | None | 0 (0/6) Percentage |  |  |  |  |  |  |  |  | 
